Assay [1] relates to MIAPACA2 cells. Description: 13C9-Tyr tracing in MIAPACA2 cells with the indicated reagents. The format is cell-based, human. The text has this:
4-HMA biosynthesis has only been described in some bacteria and in rabbits. […] The production of 4-HPPA occurs in the first step of tyrosine (Tyr) catabolism via tyrosine transaminase (TAT). In rabbits, 4-HMA was proposed to be synthesized from the degradation of tyramine and octopamine by dopamine β-hydroxylase (Dbh) and monoamine oxidase (Mao) (FIG. 9A)^13. Tyramine is also a Tyr-derived metabolite. Therefore, all known substrates required to generate 4-HMA are derived from Tyr. In addition, Tyr can also be made from phenylalanine (Phe) by Phe hydroxylase (PAH) in mammalian liver cells^14. To elucidate the human 4-HMA biosynthetic pathway, the fates of ^13C9-Tyr and ^13C6-Phe were traced in human cells. […] Additionally, the generation of 4-HMA by […] would result in the incorporation of a single ^18O at the Ca position of the carboxylic acid of 4-HMA (FIG. 9A). However, this was not observed by ^18O labelling (FIG. 8B). Therefore, it was unlikely that 4-HMA biosynthesis from octopamine and tyramine catabolism occurred in the present system.
Unexpectedly, 4-HMA levels also were lower in hyperoxic (21%) conditions compared to 3% O2, reflecting either decreased production or increased consumption of this metabolite at 21% O2.
Therefore, CoQ10 was used as an indirect readout of 4-HB production. To assess the ability of human cells to biosynthesize CoQ10, cells were labelled with ^13C6-Phe or ^13C9-Tyr. CoQ10 was completely biosynthesized from Tyr, but not Phe, in human cells (FIG. 11B).
(§1) For metabolomics, briefly, cells were washed in 4° C. 0.9% saline and metabolites were extracted with 46% methanol:23% H2O:[…] chloroform that contained a labelled amino acid standard mix (MSK-A2-1.2, Cambridge Isotope Laboratories, Inc.). Enzymatic assay samples were extracted using 80% methanol: 20% H2O that contained labelled amino acid standards. Extracts were placed into 1.5 mL Eppendorf tubes, vortexed at 4° C. for 10 min and centrifuged at 4° C. for 10 min at 17,200×g in a microcentrifuge. The aqueous phase was transferred to vials for GC-MS or Eppendorf tubes for LC-MS. Polar samples were evaporated in a SpeedVac and samples were resolved by GC-MS or LC-MS. Lipid samples were dried using a stream of N2 (for ^18O labelling studies) or air. Metabolite and lipid extracts were submitted to the NYULMC Metabolomics Core Resource Laboratory.
For polar metabolomics, the LC column was a Millipore ZIC-pHILIC (2.1×150 […], 5 μm bead size) coupled to a Dionex UltiMate 3000 system. The column oven temperature was held at 25° C. The flow rate was 100 μL/min, and the injection volume was 1 μL. Buffer A was 10 mM ammonium carbonate in water, pH 9, and Buffer B was neat acetonitrile. The gradient profile was 80-20% B (0-30 min), 20-80% B (30-31 min), and 80-80% B (31-42 min). MS Analyses were carried out on a Thermo Q Exactive HF mass spectrometer using a heated electrospray ionization (HESI) source. The method duration was 30 min using a polarity-switching, top 5 method. The spray voltage for both positive and negative ion modes was 3.5 kV. The capillary temperature was 320° C. with a maximum spray current of 100 ρA. The full MS scan was carried out at 120,000 resolution with a scan range of 67-1000 m/z. For ^18O2 labelling experiments, full MS scans were carried out at 240,000 resolution at the same scan range. Tandem MS spectra were obtained at 15,000 resolution. All data were acquired in profile mode. Peak heights were analyzed using Xcalibur (ThermoFisher Scientific).
Lipid metabolomics were acquired using a Waters CSH-C18 (2.1×100 mm, 1.7 μm) column coupled to a Dionex UltiMate 3000 system. The column oven temperature was held at 55° C. The flow rate was 300 μL/min and the injection volume was 1 μL. Buffer A was 60:40 acetonitrile:water, 0.1% formic acid and Buffer B was 90:10 isopropanol:acetonitrile, 10 mM ammonium formate. […]

The test system of assay [2] is MIAPACA2 cells. Nature of the assay: 18O2-GASSP labelling of MIAPACA2 cells treated with MG132, IOX1, DFO or ascorbate. The format is cell-based, human. The protocol: As additional controls, MIAPACA2 cells were treated with an iron chelator (DFO, FIG. 5E-5F), a proteasome inhibitor (MG132) to induce proteotoxic stress, and physiological levels of ascorbate, an antioxidant, to determine the effects of ROS on ^18O-labelling. Labelling of ^18O γ-butyrobetaine was blocked by IOX1 and DFO, consistent with the fact that trimethyllysine hydroxylase (TMLH) is an iron-dependent dioxygenase (FIGS. 7A-7D). […] Total levels of ^18O labelled methionine sulfoxide increased upon MG132 treatment and decreased following ascorbate treatment (FIGS. 7I-7M)^10.
(§2) All steps involved in setting up labelling with ^18O2 were performed at room temperature and inside a chemical fume hood. The procedure may vary depending on the type and number of tissue culture plates in the chamber and the amount of media in the plates. Users must test the system by using ^16O2:CO2:N2 or other unlabelled gases to optimize conditions for their needs and avoid consumption of costly labelled gases. Cells were treated with or without 5 μM MG132, 500 μM IOX1, 250 μM DFO, or 70 μM ascorbate, before placing tissue culture plates into the modular incubator chamber (MIC) containing a wireless oxygen sensor and a 15 cm dish of water to maintain humidity. Next, the clamps were closed to form an air-tight seal between the lid and platform of the MIC. […] N2 flushing was repeated for a total of three times, or until the sensor in the chamber stabilized at 0% O2 for 10 minutes.
Next, the inlet valve was opened and the ^18O2:5% CO2:N2 gaseous mixture was flushed into the system at a rate of 2.5 L/min. Subsequently, the outlet valve was immediately opened to allow gas flow out of the chamber, and to release the pressure in the system. The chamber was injected with the ^18O2:5% CO2:N2 gaseous mixture for 1 minute before the inlet and outlet valves were closed simultaneously. The chamber was allowed to equilibrate for 5 minutes. This process was repeated seven times, or until the desired oxygen concentration was reached and was stable. For 3%, 1%, and 0.2% ^18O2 labelling studies, the chamber was infused with 5%:5%:90%, 1.5%:5%:93.5%, and 0.5%:5%:94.5% ^18O2:CO2:N2, respectively. The ^18O2-infused MIC was then placed in a 37° C., 5% CO2 tissue culture incubator for 24 hours. The oxygen concentration in the chamber was monitored regularly. Oxygen measurements after 20 hours was not feasible due to the battery life of the sensor. At the end of the experiment, the chamber was opened inside a chemical fume hood before metabolite extraction.
as §1
For polar metabolomics, the LC column was a Millipore ZIC-pHILIC (2.1×150 […], 5 μm bead size) coupled to a Dionex UltiMate 3000 system. The column oven temperature was held at 25° C. The flow rate was 100 μL/min, and the injection volume was 1 μL. Buffer A was 10 mM ammonium carbonate in water, pH 9, and Buffer B was neat acetonitrile. The gradient profile was 80-20% B (0-30 min), 20-80% B (30-31 min), and 80-80% B (31-42 min). MS Analyses were carried out on a Thermo Q Exactive HF mass spectrometer using a heated electrospray ionization (HESI) source. […]

For a further assay, the system named is human cells. Description: 18O2-GASSP labelling of human cells, untargeted polar metabolomics, with or without IOX1. The format is cell-based. The settings on record: 18O labelling of the metabolite in cells treated with IOX1 (dioxygenase inhibitor), 24 hours. The protocol:
To map the molecular fate of O2 in metabolic pathways in living cells, GASSP was used to carry out ^18O2 labelling in cell lines of different tissue origins at ^18O2 concentrations that represented physiological (3%), hypoxic (1%), and severely hypoxic (0.2%) oxygen tensions found in tissues and tumours^7. At the end of each run, polar metabolites were extracted and untargeted polar metabolomics using liquid chromatography-high resolution mass spectrometry (LC-MS) were carried out to identify metabolites labeled with ^18O.
A list of unique features identified by untargeted metabolomics that were >0.25% (natural abundance of ^18O is 0.2%) labelled by ^18O atoms in each cell line at each oxygen tension was generated. In addition, background signal was controlled by requiring that ^18O labeled peaks had to have a signal that was two-fold greater than naturally occurring isotopes found in non-labelled (^16O) metabolite cell extracts. To determine the proportion of unique ^18O labelled features that were due to dioxygenase activity, cells were treated with a pan-dioxygenase inhibitor (IOX1) at concentrations that inhibit iron-dependent dioxygenases, such as the HIF1α prolyl hydroxylases (FIGS. 5E-5F) and identified ^18O labelled polar metabolites. This list of ^18O metabolites was generated by identifying all features in the unlabelled samples, filtering these features against blank samples to remove background peaks, and calculating the fractional ^18O labelling with the assumption that a metabolite would have no more than three oxygen atoms labelled, followed by manual curation of labelled features (FIG. 1B and FIG. 5G). […] These ^18O-labelled features were termed the oxy-metabolome.
To determine the identities of the labeled metabolites, the list of ^18O labelled features was annotated to their corresponding unlabelled metabolites using retention time matching, tandem mass spectrometry (MS2) fragmentation patterns, and database searching.
as §2

Entries after “also recorded” stand apart in the source; their conditions may differ. Peptide text beside a SMILES is read from it. * marks the point of attachment. Cbz = O=C(OCc1ccccc1)*

The results in this text go back to patent US12558329B2 (New York University, priority 2021, dated 2026).

As for `CC(=O)N(O)CCCCCNC(=O)CCC(=O)N(O)CCCCCNC(=O)CCC(=O)N(O)CCCCCN` [DFO, N-[5-[[4-[5-[acetyl(hydroxy)amino]pentylamino]-4-oxobutanoyl]-hydroxyamino]pentyl]-N′-(5-aminopentyl)-N′-hydroxybutanediamide], in the assay with MIAPACA2 cells [1] (3% 16O2, 24 hours), the “13C9-Tyr-derived 4-HMA” value is “attenuated or ablated; also recorded: severely inhibited” and the “CoQ10 labelling from 13C9-Tyr (incorporation of tyrosine into CoQ10)” value is listed as “eliminated; also recorded: completely blocked”. For the same compound, the 4-HPLA pools entry in the assay with MIAPACA2 cells [1] (13C-Tyr, 3% O2, 24 hours) was “increased”. Further, in the assay with MIAPACA2 cells [2] (3%, 1%, 0.2% 18O2, 24 hours), the “18O labelling of methionine” value is given as “less sensitive; also recorded: only partially blocked” and the “18O labelling of γ-butyrobetaine” value is reported as “sensitive; also recorded: blocked”. In the assay on MIAPACA2 cells [2] (MIAPACA2, 3%, 1%, 0.2% 18O2, 24 hours, 500 μM IOX1, 250 μM DFO), the “18O labelling of 4-HMA” value was “sensitive; also recorded: significantly attenuated”. Moreover, the 4-HMA levels entry in the assay with MIAPACA2 cells [2] (MIAPACA2, 18O2 labelling, 24 hours, 500 μM IOX1, 250 μM DFO, 70 μM ascorbate) is reported as “significantly attenuated”.

`C[N+](C)(C)CCCC(=O)[O-]` [Metabolite 21, g-Butyrobetaine]: the “IOX1 Sensitive (Yes/No)” value in the assay on human cells is on record as “Yes”.

As for `CC(=O)N[C@H]1C(O)O[C@H](CO)[C@@H](O)[C@@H]1O` (stereo partly drawn) [Metabolite 16, N-Acetyl-D-glucosamine], the “IOX1 Sensitive (Yes/No)” value in the assay on human cells is reported as “No”.

Turning to `NC(=O)C1=CN([C@@H]2O[C@H](COP(=O)(O)OP(=O)(O)OC[C@H]3O[C@@H](n4cnc5c(N)ncnc54)[C@H](O)[C@@H]3O)[C@@H](O)[C@H]2O)C=CC1` [Metabolite 28, NADH], the “IOX1 Sensitive (Yes/No)” value in the assay on human cells is given as “Yes”.

As to `C[S+]([O-])CC[C@H](N)C(=O)O` (some centres unmarked) [Metabolite 23, Methionine Sulfoxide], in the assay with human cells, the “IOX1 Sensitive (Yes/No)” value is “Yes”.

As for `CCCCC(=O)O[C@H](CC(=O)[O-])C[N+](C)(C)C` [Metabolite 4, Valerylcarnitine], the “IOX1 Sensitive (Yes/No)” value in the assay on human cells is on record as “Yes”.

Take `N[C@@H](CCC(=O)O)C(=O)O` [Metabolite 33, Glutamate]: the “IOX1 Sensitive (Yes/No)” value in the assay on human cells was “Yes”.

Consider `CN(CC(=O)O)C(=N)N` [Metabolite 29, Creatine], for which the “IOX1 Sensitive (Yes/No)” value in the assay on human cells is listed as “Yes”.

In the case of `CSCC[C@H](N)C(=O)O` [Metabolite 13, Methionine], the “IOX1 Sensitive (Yes/No)” value in the assay on human cells was “Yes”.

As for `O=C(O)[C@@H]1C[C@@H](O)CN1` [Metabolite 24, Hydroxyproline], the “IOX1 Sensitive (Yes/No)” value in the assay with human cells is listed as “Yes”.

On to `N[C@@H](CCSC[C@H](N)C(=O)O)C(=O)O` [Metabolite 42, Cystathionine], for which the “IOX1 Sensitive (Yes/No)” value with human cells is recorded as “Yes”.

For `NCCS(=O)O` [Metabolite 32, Hypotaurine], the “IOX1 Sensitive (Yes/No)” value with human cells is recorded as “Yes”.

For the compound `CC(=O)N[C@@H](CO)[C@@H](O)[C@@H](O)[C@H](O)CO` [Metabolite 17, N-Acetyl-D-galactosaminitol], in the assay on human cells, the “IOX1 Sensitive (Yes/No)” value is on record as “Yes”.

Regarding `C[S+](CC[C@H](N)C(=O)[O-])C[C@H]1O[C@@H](n2cnc3c(N)ncnc32)[C@H](O)[C@@H]1O` (some centres unmarked) [Metabolite 41, S-adenosyl methionine], the “IOX1 Sensitive (Yes/No)” value in the assay on human cells was “Yes”.

As to `O=C[C@@H](O)[C@@H](O)[C@H](O)[C@H](O)COP(=O)(O)O` [Metabolite 46, D-Mannose 6-phosphate], in the assay on human cells, the “IOX1 Sensitive (Yes/No)” value is reported as “Yes”.

Consider `CC(C)C[C@@H](C=O)NC(=O)[C@H](CC(C)C)NC(=O)[C@H](CC(C)C)NC(=O)OCc1ccccc1` [MG132] (Cbz-Leu-Leu-Leu-aldehyde), for which the “Total levels of 18O labelled methionine sulfoxide” value in the assay with MIAPACA2 cells [2] (5 μM MG132, 70 μM ascorbate, 24 hours) is “increased”.

Consider `O=c1ccn([C@@H]2O[C@H](COP(=O)(O)O)[C@@H](O)[C@H]2O)c(=O)[nH]1` [Metabolite 36, UMP], for which, in the assay on human cells, the “IOX1 Sensitive (Yes/No)” value is recorded as “Yes”.
